Article PMC7594083, “Preclinical Evaluation of the GRPR-Targeting Antagonist RM26 Conjugated to the Albumin-Binding Domain for GRPR-Targeting Therapy of Cancer” (Pharmaceutics, 2020)
Where two headings read alike, the source gives them in different places.

Columns and labels:
[1] = Thermal melting by circular dichroism; assay type: physicochemical; details: pH 7.4
[2] = Circular dichroism, secondary structure/helicity; assay type: physicochemical
Procedure: The secondary structures of ABD035, DOTA-ABD-Cl and DOTA-ABD-RM26 were determined by circular dichroism spectroscopy (Chirascan, Applied Photophysics, Leatherhead, UK). All CD spectra were obtained at 20 °C using a protein concentration of 0.2 mg/mL in 20 mM potassium phosphate buffer with 100 mM KCl pH 7.4. To estimate the percentage of helicity in each construct, the measured ellipticity (θobs) was first converted to the mean residue ellipticity (MRE) using the following formula MRE = θobs/10 × l × C × n, where l is the pathlength in cm, C is the peptide concentration in the molar, and n is the number of residues in each construct. From the mean residue ellipticity at 222 nm, MRE222, the fraction helix, FH, was calculated using the following formula, FH = (MRE222 − [θ]C)/([θ]H − [θ]C). [θ]H and [θ]C are given by [θ]H = 40,000 × (1 − (2.5/n) + 100 × T, and [θ]C = 640 − 45 × T. T is given in °C, here 20, and n is the number of residues in each construct (Scholtz 1991).

PC-3 xenografts = assay: Biodistribution in mice bearing PC-3 xenografts; assay type: in vivo, mice (BALB/c nu/nu female)
Procedure: (§1) Instant thin-layer chromatography (ITLC) results were analyzed using Cyclone® Plus (PerkinElmer). […] BALB/c nu/nu female mice were implanted subcutaneously with PC-3 cells in PBS (6.5 × 10^6 cells/mouse) on the hind leg. […] A group of four mice was used per data point. […] After euthanization, the organs of interest were collected and weighed, and the radioactivity content was measured on a gamma counter.

[3] = Biodistribution in mice bearing PC-3 xenografts; assay type: in vivo, mice (BALB/c nu/nu female); details: mouse, in vivo, iv, 40 pmol, 40 pmol i.v., 1 h pi, 4 mice, SD; read-out: activity concentration in blood 1 h pi
Procedure: as §1

GRPR = GRPR (Homo sapiens, UniProt P30550); assay: Competitive binding (IC50) assay on PC-3 cells; design: host or cells: PC-3 prostate carcinoma cells; details: vs 1 nM [^111In]In-NOTA-PEG4-RM26, PC-3 cells, 0-10 µM, 4 °C, 5 h, n = 3, SD
Procedure: Prostate carcinoma cell line PC-3 (GRPR positive) was purchased from ATCC, Manassas, VA, USA. […] PC-3 cells (5 × 10^5 cells/well) were plated on 12-well plates one day before the competitive binding assays. […] On the day of the experiment, the cells were washed, and 1 nM of [^111In]In-NOTA-PEG4-RM26 was added to each well along with a series of concentrations ranging between 0-10 μM of the competing conjugate. The dishes were incubated at 4 °C for 5 h. The cells were then washed and treated with trypsin-EDTA until cell detachment. The cells were collected, and the radioactivity content was measured using a gamma counter.

[4] = target: gastrin-releasing peptide receptor (human (endogenous in PC-3)) (UniProt P30550); assay: radioligand binding
gastrin-releasing peptide receptor (human (endogenous in PC-3)), sequence (P30550 whole entry): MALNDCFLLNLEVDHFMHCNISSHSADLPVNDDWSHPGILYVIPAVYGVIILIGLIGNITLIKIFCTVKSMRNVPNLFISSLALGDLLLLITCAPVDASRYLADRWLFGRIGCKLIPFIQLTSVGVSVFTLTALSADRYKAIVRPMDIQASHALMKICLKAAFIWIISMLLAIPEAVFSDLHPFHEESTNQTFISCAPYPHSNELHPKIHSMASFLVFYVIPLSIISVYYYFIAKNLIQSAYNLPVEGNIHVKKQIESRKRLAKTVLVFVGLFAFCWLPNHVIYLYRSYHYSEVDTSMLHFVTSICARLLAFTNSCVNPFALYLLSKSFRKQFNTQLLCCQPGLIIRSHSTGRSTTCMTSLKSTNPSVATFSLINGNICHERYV

GRPR, sequence (P30550 whole entry): as above

In the case of `CC[C@H](C)[C@H](NC(=O)[C@H](Cc1c[nH]cn1)NC(=O)[C@H](CC(C)C)NC(=O)[C@H](CCCCN)NC(=O)[C@H](CC(C)C)NC(=O)[C@H](C)NC(=O)[C@H](CCC(=O)O)NC(=O)[C@@H](NC(=O)CNC(=O)[C@H](CCC(=O)O)NC(=O)[C@@H](NC(=O)[C@@H](NC(=O)[C@H](CCCCN)NC(=O)[C@H](C)NC(=O)[C@H](CCCCN)NC(=O)[C@H](CC(N)=O)NC(=O)[C@@H](NC(=O)[C@H](CC(C)C)NC(=O)[C@H](CCCNC(=N)N)NC(=O)[C@H](CCCCN)NC(=O)[C@H](Cc1ccc(O)cc1)NC(=O)[C@H](Cc1ccccc1)NC(=O)[C@H](CC(=O)O)NC(=O)[C@H](CO)NC(=O)[C@@H](NC(=O)CNC(=O)[C@H](Cc1ccc(O)cc1)NC(=O)[C@H](CCCCNC(=O)CCl)NC(=O)[C@H](CC(=O)O)NC(=O)[C@H](CC(C)C)NC(=O)[C@H](CCC(=O)O)NC(=O)[C@H](CCCNC(=N)N)NC(=O)[C@H](CC(N)=O)NC(=O)[C@H](C)NC(=O)[C@H](CC(C)C)NC(=O)[C@@H](NC(=O)[C@H](CCCCN)NC(=O)[C@H](C)NC(=O)[C@H](CCC(=O)O)NC(=O)[C@H](C)NC(=O)[C@H](CC(C)C)NC(=O)CN1CCN(CC(=O)O)CCN(CC(=O)O)CCN(CC(=O)O)CC1)C(C)C)C(C)C)[C@@H](C)CC)[C@@H](C)O)C(C)C)C(C)C)C(=O)N[C@@H](CC(C)C)C(=O)N[C@@H](C)C(=O)N[C@@H](C)C(=O)N[C@@H](CC(C)C)C(=O)N1CCC[C@H]1C(N)=O` [DOTA-ABD-Cl], the “melting temperature (Tm)” value ([1]; CD, 0.2 mg/mL in 20 mM potassium phosphate, 100 mM KCl, estimated (only roughly for DOTA-ABD-RM26)) is reported as 50 °C, the CD spectrum pattern ([2]; 20 °C, 0.2 mg/mL, 20 mM potassium phosphate with 100 mM KCl pH 7.4) is reported as “characteristic alpha-helical pattern” and the helicity ([2]; from MRE222, 20 °C, 0.2 mg/mL, 20 mM potassium phosphate with 100 mM KCl pH 7.4, helix-coil theory) is reported as “approximately 60%”. The “residues in helical conformation” value ([2]; from MRE222, 20 °C, pH 7.4, out of 49 (ABD035), 46 (DOTA-ABD-Cl), 56 (ABD-RM26) residues) was 27 residues.
For `CC[C@H](C)[C@H](NC(=O)[C@H](Cc1c[nH]cn1)NC(=O)[C@H](CC(C)C)NC(=O)[C@H](CCCCN)NC(=O)[C@H](CC(C)C)NC(=O)[C@H](C)NC(=O)[C@H](CCC(=O)O)NC(=O)[C@@H](NC(=O)CNC(=O)[C@H](CCC(=O)O)NC(=O)[C@@H](NC(=O)[C@@H](NC(=O)[C@H](CCCCN)NC(=O)[C@H](C)NC(=O)[C@H](CCCCN)NC(=O)[C@H](CC(N)=O)NC(=O)[C@@H](NC(=O)[C@H](CC(C)C)NC(=O)[C@H](CCCNC(=N)N)NC(=O)[C@H](CCCCN)NC(=O)[C@H](Cc1ccc(O)cc1)NC(=O)[C@H](Cc1ccccc1)NC(=O)[C@H](CC(=O)O)NC(=O)[C@H](CO)NC(=O)[C@@H](NC(=O)CNC(=O)[C@H](Cc1ccc(O)cc1)NC(=O)[C@H](CCCCNC(=O)CSCCC(=O)NCCOCCOCCOCCOCCC(=O)N[C@H](Cc1ccccc1)C(=O)N[C@@H](CCC(N)=O)C(=O)N[C@@H](Cc1c[nH]c2ccccc12)C(=O)N[C@@H](C)C(=O)N[C@H](C(=O)NCC(=O)N[C@@H](Cc1c[nH]cn1)C(=O)N[C@@H](CC(C)C)[C@@H](O)CC(=O)N[C@@H](CC(C)C)C(N)=O)C(C)C)NC(=O)[C@H](CC(=O)O)NC(=O)[C@H](CC(C)C)NC(=O)[C@H](CCC(=O)O)NC(=O)[C@H](CCCNC(=N)N)NC(=O)[C@H](CC(N)=O)NC(=O)[C@H](C)NC(=O)[C@H](CC(C)C)NC(=O)[C@@H](NC(=O)[C@H](CCCCN)NC(=O)[C@H](C)NC(=O)[C@H](CCC(=O)O)NC(=O)[C@H](C)NC(=O)[C@H](CC(C)C)NC(=O)CN1CCN(CC(=O)O)CCN(CC(=O)O)CCN(CC(=O)O)CC1)C(C)C)C(C)C)[C@@H](C)CC)[C@@H](C)O)C(C)C)C(C)C)C(=O)N[C@@H](CC(C)C)C(=O)N[C@@H](C)C(=O)N[C@@H](C)C(=O)N[C@@H](CC(C)C)C(=O)N1CCC[C@H]1C(N)=O` [DOTA-ABD-RM26], the “uptake in pancreas, intestines and xenografts, ABD-coupled vs parental RM26” value (PC-3 xenografts; 1 h pi, discussion) was “activity uptake was equal both for ABD-coupled and parental RM26”, the “kidney uptake vs tumor uptake” value (PC-3 xenografts; all studied time points, 1-144 h pi) was “higher than that in tumors at all studied time points” and the “uptake in liver and bone” value (PC-3 xenografts; up to 144 h pi) was “elevated up to 144 h pi”.
With `CC(C)C[C@H](NC(=O)C[C@H](O)[C@H](CC(C)C)NC(=O)[C@H](Cc1c[nH]cn1)NC(=O)CNC(=O)[C@@H](NC(=O)[C@H](C)NC(=O)[C@H](Cc1c[nH]c2ccccc12)NC(=O)[C@H](CCC(N)=O)NC(=O)[C@@H](Cc1ccccc1)NC(=O)COCCOCCNC(=O)CN1CCN(CC(=O)O)CCN(CC(=O)O)CCN(CC(=O)O)CC1)C(C)C)C(N)=O` [[^111In]In-DOTA-RM26, metal not drawn, reference compound] the “pancreas and tumor uptake, [^111In]In-DOTA-ABD-RM26 vs [^111In]In-DOTA-RM26” value (PC-3 xenografts; 1 h pi) was “on the same level for both radiolabelled conjugates” and the tissue uptake at 1 h [3] was 0.27 ± 0.04 %ID/g.
Work on `CC[C@H](C)[C@H](NC(=O)[C@H](Cc1c[nH]cn1)NC(=O)[C@H](CC(C)C)NC(=O)[C@H](CCCCN)NC(=O)[C@H](CC(C)C)NC(=O)[C@H](C)NC(=O)[C@H](CCC(=O)O)NC(=O)[C@@H](NC(=O)CNC(=O)[C@H](CCC(=O)O)NC(=O)[C@@H](NC(=O)[C@@H](NC(=O)[C@H](CCCCN)NC(=O)[C@H](C)NC(=O)[C@H](CCCCN)NC(=O)[C@H](CC(N)=O)NC(=O)[C@@H](NC(=O)[C@H](CC(C)C)NC(=O)[C@H](CCCNC(=N)N)NC(=O)[C@H](CCCCN)NC(=O)[C@H](Cc1ccc(O)cc1)NC(=O)[C@H](Cc1ccccc1)NC(=O)[C@H](CC(=O)O)NC(=O)[C@H](CO)NC(=O)[C@@H](NC(=O)CNC(=O)[C@H](Cc1ccc(O)cc1)NC(=O)[C@H](CCCCNC(=O)CSCCC(=O)NCCOCCOCCOCCOCCC(=O)N[C@H](Cc1ccccc1)C(=O)N[C@@H](CCC(N)=O)C(=O)N[C@@H](Cc1c[nH]c2ccccc12)C(=O)N[C@@H](C)C(=O)N[C@H](C(=O)NCC(=O)N[C@@H](Cc1c[nH]cn1)C(=O)N[C@@H](CC(C)C)[C@@H](O)CC(=O)N[C@@H](CC(C)C)C(N)=O)C(C)C)NC(=O)[C@H](CC(=O)O)NC(=O)[C@H](CC(C)C)NC(=O)[C@H](CCC(=O)O)NC(=O)[C@H](CCCNC(=N)N)NC(=O)[C@H](CC(N)=O)NC(=O)[C@H](C)NC(=O)[C@H](CC(C)C)NC(=O)[C@@H](NC(=O)[C@H](CCCCN)NC(=O)[C@H](C)NC(=O)[C@H](CCC(=O)O)NC(=O)[C@H](C)NC(=O)[C@H](CC(C)C)NC(=O)CN1CCN(CC(=O)O)CCN(CC(=O)O)CCN(CC(=O)O)CC1)C(C)C)C(C)C)[C@@H](C)CC)[C@@H](C)O)C(C)C)C(C)C)C(=O)N[C@@H](CC(C)C)C(=O)N[C@@H](C)C(=O)N[C@@H](C)C(=O)N[C@@H](CC(C)C)C(=O)N1CCC[C@H]1C(N)=O` [^natIn-DOTA-ABD-RM26, metal not drawn] yielded an IC50 (GRPR; 10-fold molar excess of HSA, read-out: half-maximal inhibitory concentration (IC50) in the presence of HSA) of 49 ± 5 nM and an IC50 (GRPR; without HSA, read-out: half-maximal inhibitory concentration (IC50)) of 30 ± 3 nM.
In the case of “AMALAEAKVLANRELDKYGVSDFYKRLINKAKTVEGVEALKLHILAALP [ABD035, recombinant control protein, reference compound]”, the “melting temperature (Tm)” value [1] is reported as 54 °C.
Work on DOTA-ABD-RM26 (designed binder) yielded an IC50 [4] of 30 nM.
For “DOTA-ABD-RM26 bound to human serum albumin (from UniProt P02768 25-609) (complex)”, the IC50 [4] was 49 nM.
